Converted amounts (≈) assume the structure as drawn. Where two headings read alike, the source gives them in different places.
Legend:
Assay type in all cases: cell-based
[1] = system: Proteus mirabilis (IFO 3849); assay: MIC, agar dilution, Proteus mirabilis; details: Proteus mirabilis, IFO3849, 20 h, read-out: Minimum Inhibitory Concentration (MIC)
Method: (§1) The compounds of this invention were tested for antibacterial activity according to the following procedure. Nutrient broth and nutrient agar were prepared according to the conventional procedure. […] was used as a vehicle. The stock solution was prepared at 100 μg/ml of the test material in the vehicle. Two-fold dilutions were made with the vehicle and then the diluted stock solution was added to a petri dish and solidified by chilling. Test organisms were grown in the nutrient broth for 20 hours at 37° C. The hardened surface was inoculated with a loopful of the test organism solution containing 1×10^6 cells per milliliter and incubated for 20 hours at 37° C. At the end of this period, growth of the organism was observed. […] The following Table 1 summarizes the activity of representative compounds as active antibacterial agents, and compares them with the prior art compounds and the reference drug Sulbenicillin.

[2] = system: Proteus vulgaris (IFO 3045); assay: MIC, agar dilution, Proteus vulgaris; details: Proteus vulgaris, IFO3045, 20 h, read-out: Minimum Inhibitory Concentration (MIC)
Method: as §1

Staph. aureus (FDA 209P) = assay: MIC, agar dilution, Staph. aureus; details: Staphylococcus aureus, FDA209P, 20 h, read-out: Minimum Inhibitory Concentration (MIC)
Method: as §1

[3] = system: Pseudomonas aeruginosa (ATCC 15691); assay: MIC, agar dilution, Pseudomonas aeruginosa ATCC 15691; details: ATCC15691, 20 h, read-out: Minimum Inhibitory Concentration (MIC)
Method: as §1

E. coli (NIHJ) = assay: MIC, agar dilution, E. coli; details: Escherichia coli, 20 h, read-out: Minimum Inhibitory Concentration (MIC)
Method: as §1

[4] = system: Pseudomonas aeruginosa M-12; assay: MIC, agar dilution, Pseudomonas aeruginosa M-12; details: ATCC15692, 20 h, read-out: Minimum Inhibitory Concentration (MIC)
Method: as §1
^*2 chloramphenicol resistant strain derived from Pseudomonas

[5] = system: Klebsiella pneumoniae (ATCC 25955); assay: MIC, agar dilution, Klebsiella pneumoniae; details: Klebsiella pneumoniae, ATCC25955, 20 h, read-out: Minimum Inhibitory Concentration (MIC)
Method: as §1

[6] = system: Proteus morgani (IFO 3848); assay: MIC, agar dilution, Proteus morgani; details: Morganella morganii, IFO3848, 20 h, read-out: Minimum Inhibitory Concentration (MIC)
Method: as §1

[7] = system: Pseudomonas aeruginosa M-16; assay: MIC, agar dilution, Pseudomonas aeruginosa M-16; details: M16, 20 h, read-out: Minimum Inhibitory Concentration (MIC)
Method: as §1
^*3 streptomycin, chloramphenicol and mercury resistant strain derive

[8] = system: Pseudomonas aeruginosa M-11; assay: MIC, agar dilution, Pseudomonas aeruginosa M-11; details: 20 h, read-out: Minimum Inhibitory Concentration (MIC)
Method: as §1
^*1 streptomycin resistant strain derived from Pseudomonas aeruginosa

Pseudomonas aeruginosa = assay: MIC, agar dilution, Pseudomonas aeruginosa (strain not given); details: ATCC 15691 / ATCC 15692, 20 h, read-out: Minimum Inhibitory Concentration (MIC)
Method: as §1

[9] = system: Salmonella typhimurium (TA 100); assay: MIC, agar dilution, Salmonella typhimurium; details: Salmonella enterica, read-out: Minimum Inhibitory Concentration (MIC)
Method: as §1

[10] = Salmonella typhimurium TA 100, ampicillin resistant strain, nutrient agar, 20 hours at 37° C.

Row | SMILES | MIC [1] | MIC [2] | MIC (Staph. aureus (FDA 209P)) | MIC (E. coli (NIHJ)) | MIC [6] | other results
1 | CC1(C)S[C@@H]2[C@H](NC(=O)[C@H](NC(=O)[C@H]3CCCN3)c3ccccc3)C(=O)N2[C@H]1C(=O)O [Compound 1] | 1.5 µg/mL (≈ 3.36 µM) | 1.5 µg/mL (≈ 3.36 µM) | 0.45 µg/mL (≈ 1.01 µM) | 6.2 µg/mL (≈ 13.9 µM) | 3.1 µg/mL (≈ 6.94 µM) | MIC [3]: 12.5 µg/mL (≈ 28 µM); MIC [4]: 3.1 µg/mL (≈ 6.94 µM); MIC [5]: 50 µg/mL (≈ 112 µM); MIC [7]: 3.1 µg/mL (≈ 6.94 µM)
2 | CC1(C)S[C@@H]2[C@H](NC(=O)[C@H](NC(=O)[C@H]3CCCN3C(=O)OCc3ccccc3)c3ccccc3)C(=O)N2[C@H]1C(=O)O [Compound 2, potassium 6-[D-2-(N-benzyloxycarbonyl-D-prolyl)amino-2-phenylacetamido]penicillanatemonohydrate] |  |  | 1.25 µg/mL |  |  | 
3 | CC1(C)S[C@@H]2[C@H](NC(=O)[C@H](NC(=O)[C@H]3CCCN3C(=O)OCc3ccccc3)c3ccc(O)cc3)C(=O)N2[C@H]1C(=O)O [Compound 5] |  |  | 2.5 µg/mL (≈ 4.19 µM) |  |  | 
4 | CC1(C)S[C@@H]2[C@H](NC(=O)[C@H](NC(=O)[C@@H]3CCCN3C(=O)OCc3ccccc3)c3ccc(O)cc3)C(=O)N2[C@H]1C(=O)O [Compound 6] |  |  | 1.25 µg/mL (≈ 2.09 µM) |  |  | 
5 | CC1(C)S[C@@H]2[C@H](NC(=O)[C@H](NC(=O)[C@H]3CCCCN3)c3ccc(O)cc3)C(=O)N2[C@H]1C(=O)O [Compound 7] | 9 µg/mL (≈ 18.9 µM) | < 6.2 µg/mL | 1.25 µg/mL (≈ 2.62 µM) | 25 µg/mL (≈ 52.5 µM) | < 6.2 µg/mL | MIC [5]: 9 µg/mL (≈ 18.9 µM)
6 | CC1(C)S[C@@H]2[C@H](NC(=O)[C@H](NC(=O)[C@H]3CCCCN3C(=O)OCc3ccccc3)c3ccc(O)cc3)C(=O)N2[C@H]1C(=O)O [Compound 8] |  |  | 1.25 µg/mL (≈ 2.05 µM) |  |  | 
7 | CC1(C)S[C@@H]2[C@H](NC(=O)[C@H](NC(=O)[C@H]3CCCCN3C(=O)OCc3ccccc3)c3ccccc3)C(=O)N2[C@H]1C(=O)O [Compound 9] |  |  | 0.62 µg/mL (≈ 1.04 µM) |  |  | 
8 | CC1(C)S[C@@H]2[C@H](NC(=O)[C@H](NC(=O)[C@H]3CCCCN3C(N)=O)c3ccccc3)C(=O)N2[C@H]1C(=O)O [Compound 10] |  |  | 0.31 µg/mL (≈ 0.616 µM) |  |  | 
9 | CC1(C)S[C@@H]2[C@H](NC(=O)[C@H](NC(=O)C3CCCCN3C(N)=O)c3ccccc3)C(=O)N2[C@H]1C(=O)O (stereo partly drawn) [Compound 11] |  |  | 0.31 µg/mL (≈ 0.616 µM) |  |  | 
10 | CC1(C)S[C@@H]2[C@H](NC(=O)[C@H](NC(=O)[C@H]3CCCCN3)c3ccccc3)C(=O)N2[C@H]1C(=O)O [Compound 12] |  |  | 1.25 µg/mL (≈ 2.71 µM) |  |  | 
11 | CC1(C)S[C@@H]2[C@H](NC(=O)[C@H](NC(=O)C3CCCCN3)c3ccccc3)C(=O)N2[C@H]1C(=O)O (stereo partly drawn) [Compound 13] |  |  | 3.75 µg/mL (≈ 8.14 µM) |  |  | 
12 | CC1(C)S[C@@H]2[C@H](NC(=O)[C@H](NC(=O)C3NCc4ccccc43)c3ccccc3)C(=O)N2[C@H]1C(=O)O (stereo partly drawn) [Compound 14] |  |  | 0.31 µg/mL (≈ 0.627 µM) |  |  | 
13 | CC1(C)S[C@@H]2[C@H](NC(=O)[C@H](NC(=O)[C@H]3Cc4ccccc4CN3)c3ccccc3)C(=O)N2[C@H]1C(=O)O [Compound 15] | 25 µg/mL (≈ 49.2 µM) | 25 µg/mL (≈ 49.2 µM) | 0.3 µg/mL (≈ 0.59 µM) | 25 µg/mL (≈ 49.2 µM) | 25 µg/mL (≈ 49.2 µM) | MIC [8]: 25 µg/mL (≈ 49.2 µM); MIC [3]: 50 µg/mL (≈ 98.3 µM); MIC [4]: 25 µg/mL (≈ 49.2 µM); MIC [5]: 25 µg/mL (≈ 49.2 µM); MIC [7]: 25 µg/mL (≈ 49.2 µM)
14 | CC1(C)S[C@@H]2[C@H](NC(=O)[C@H](NC(=O)C3Cc4ccccc4CN3)c3ccccc3)C(=O)N2[C@H]1C(=O)O (stereo partly drawn) [Compound 16] |  |  | 0.46 µg/mL (≈ 0.904 µM) |  |  | 
15 | Cc1ccc(S(=O)(=O)N(C)[C@H](C)C(=O)N[C@@H](C(=O)N[C@@H]2C(=O)N3[C@@H]2SC(C)(C)[C@@H]3C(=O)O)c2ccccc2)cc1 [Compound 17] | 12.5 µg/mL (≈ 21.2 µM) | 12.5 µg/mL (≈ 21.2 µM) | 0.15 µg/mL (≈ 0.255 µM) | 25 µg/mL (≈ 42.5 µM) | 9 µg/mL (≈ 15.3 µM) | MIC (Pseudomonas aeruginosa): 25 µg/mL (≈ 42.5 µM); MIC [9, 10]: 12.5 µg/mL (≈ 21.2 µM)
16 | Cc1ccc(S(=O)(=O)N(C)[C@H](C)C(=O)N[C@@H](C(=O)N[C@@H]2C(=O)N3[C@@H]2SC(C)(C)[C@@H]3C(=O)O)c2ccc(O)cc2)cc1 [Compound 18] |  |  | 0.31 µg/mL (≈ 0.513 µM) |  |  | 
17 | Cc1ccc(S(=O)(=O)N(C)C(C)C(=O)N[C@@H](C(=O)N[C@@H]2C(=O)N3[C@@H]2SC(C)(C)[C@@H]3C(=O)O)c2ccccc2)cc1 (stereo partly drawn) [Compound 19] | 12.5 µg/mL (≈ 21.2 µM) | 12.5 µg/mL (≈ 21.2 µM) | 0.15 µg/mL (≈ 0.255 µM) | 25 µg/mL (≈ 42.5 µM) | 12.5 µg/mL (≈ 21.2 µM) | MIC (Pseudomonas aeruginosa): 37 µg/mL (≈ 62.8 µM); MIC ([9]; TYPHIMURIUM, 20 h): 9 µg/mL (≈ 15.3 µM)
18 | CN[C@H](C)C(=O)N[C@@H](C(=O)N[C@@H]1C(=O)N2[C@@H]1SC(C)(C)[C@@H]2C(=O)O)c1ccccc1 [Compound 20] | 9.3 µg/mL (≈ 21.4 µM) | 6.2 µg/mL (≈ 14.3 µM) | 1.87 µg/mL (≈ 4.3 µM) | 25 µg/mL (≈ 57.5 µM) | 9.3 µg/mL (≈ 21.4 µM) | MIC (Pseudomonas aeruginosa): 37.5 µg/mL (≈ 86.3 µM)
19 | CN[C@H](C)C(=O)N[C@@H](C(=O)N[C@@H]1C(=O)N2[C@@H]1SC(C)(C)[C@@H]2C(=O)O)c1ccc(O)cc1 [Compound 21] | 6.2 µg/mL (≈ 13.8 µM) | 4.7 µg/mL (≈ 10.4 µM) | 1.87 µg/mL (≈ 4.15 µM) | 12.3 µg/mL (≈ 27.3 µM) | 3.1 µg/mL (≈ 6.88 µM) | 
20 | Cc1ccc(S(=O)(=O)N(C)CC(=O)N[C@@H](C(=O)N[C@@H]2C(=O)N3[C@@H]2SC(C)(C)[C@@H]3C(=O)O)c2ccccc2)cc1 [Compound 22] | 23 µg/mL (≈ 40 µM) | 25 µg/mL (≈ 43.5 µM) | 0.31 µg/mL (≈ 0.539 µM) | 25 µg/mL (≈ 43.5 µM) | 12.5 µg/mL (≈ 21.8 µM) | MIC (Pseudomonas aeruginosa): 25 µg/mL (≈ 43.5 µM)
21 | Cc1ccc(S(=O)(=O)N(C)[C@H](CC(C)C)C(=O)N[C@@H](C(=O)N[C@@H]2C(=O)N3[C@@H]2SC(C)(C)[C@@H]3C(=O)O)c2ccccc2)cc1 [Compound 23] |  |  | 0.62 µg/mL (≈ 0.983 µM) |  |  | 
22 | CC(C)C[C@H](C(=O)N[C@@H](C(=O)N[C@@H]1C(=O)N2[C@@H]1SC(C)(C)[C@@H]2C(=O)O)c1ccccc1)N(C)C(=O)OCc1ccccc1 [Compound 24] | 100 µg/mL (≈ 164 µM) | 100 µg/mL (≈ 164 µM) | 0.62 µg/mL (≈ 1.02 µM) | 50 µg/mL (≈ 81.9 µM) | 100 µg/mL (≈ 164 µM) | MIC (Pseudomonas aeruginosa): 100 µg/mL (≈ 164 µM); MIC ([9]; TYPHIMURIUM, 20 h): < 6.25 µg/mL
23 | CN(C(=O)OCc1ccccc1)[C@@H](C(=O)N[C@@H](C(=O)N[C@@H]1C(=O)N2[C@@H]1SC(C)(C)[C@@H]2C(=O)O)c1ccccc1)c1ccccc1 [Compound 25] | 25 µg/mL (≈ 39.6 µM) | 25 µg/mL (≈ 39.6 µM) | 3.62 µg/mL (≈ 5.74 µM) | 50 µg/mL (≈ 79.3 µM) | 25 µg/mL (≈ 39.6 µM) | MIC [9, 10]: 12.5 µg/mL (≈ 19.8 µM)
24 | Cc1ccc(S(=O)(=O)N(C)[C@@H](C(=O)N[C@@H](C(=O)N[C@@H]2C(=O)N3[C@@H]2SC(C)(C)[C@@H]3C(=O)O)c2ccccc2)c2ccccc2)cc1 [Compound 26] |  |  | 0.62 µg/mL (≈ 0.953 µM) |  |  | 
25 | CN[C@H](CC(C)C)C(=O)N[C@@H](C(=O)N[C@@H]1C(=O)N2[C@@H]1SC(C)(C)[C@@H]2C(=O)O)c1ccccc1 [Compound 27] |  |  | 0.62 µg/mL (≈ 1.3 µM) |  |  | 
26 | CC1(C)S[C@@H]2[C@H](NC(=O)[C@H](NC(=O)[C@H]3CCN3)c3ccccc3)C(=O)N2[C@H]1C(=O)O [Compound 28] | 6.2 µg/mL (≈ 14.3 µM) | 6.2 µg/mL (≈ 14.3 µM) | 3.75 µg/mL (≈ 8.67 µM) | 50 µg/mL (≈ 116 µM) | 12.5 µg/mL (≈ 28.9 µM) | MIC (Pseudomonas aeruginosa): 25 µg/mL (≈ 57.8 µM)
27 | CC1(C)S[C@@H]2[C@H](NC(=O)[C@H](NC(=O)[C@H]3CCN3)c3ccc(O)cc3)C(=O)N2[C@H]1C(=O)O [Compound 29] | 3.1 µg/mL (≈ 6.91 µM) | 3.1 µg/mL (≈ 6.91 µM) | 5 µg/mL (≈ 11.1 µM) | 18.7 µg/mL (≈ 41.7 µM) | 3.1 µg/mL (≈ 6.91 µM) | MIC (Pseudomonas aeruginosa): 37.5 µg/mL (≈ 83.6 µM)

From patent publication US4220587A, “Amino acid derivatives of 6-(2-amino-2-arylacetamido)penicillanic acids” (Mitsubishi Chemical Industries, Limited, priority 1975, dated 1980)
